Assay results from ChEMBL document CHEMBL3885861, “Open TG-GATES”.

Organism: Rattus norvegicus
Test: Open TG-GATES - Regimen: Daily Repeat
Format: toxicity, organism-based, Sprague-Dawley
Parameters: regimen Daily Repeat, gender Male, age 6 weeks
Conditions: in vivo, po, route gavage; for TBIL / TC / TG / TP / gamma-GTP / ALP / ALT / AST / BUN / CRE / Ca / Cl / DBIL / K / LDH / Na / PL / RALB / IP: tissue Plasma; for APTT / Bas / Eos / Fbg / Hb / Ht / Lym / MCH / MCHC / MCV / PT / Plat / RBC / Ret / WBC / Mono / Neu: tissue Blood; for LIVER: tissue Liver
[1] = 1 mg/kg, […], dose level Low, time 28 day
[2] = 3 mg/kg, 72 h, dose level Middle, time 3 day
[3] = 3 mg/kg, 72 h, tissue Kidney, dose level Middle, time 3 day
[4] = 3 mg/kg, […], dose level Middle, time 14 day
[5] = 3 mg/kg, […], dose level Middle, time 28 day
[6] = 3 mg/kg, […], tissue Kidney, dose level Middle, time 14 day
[7] = 3 mg/kg, […], tissue Kidney, dose level Middle, time 28 day
[8] = 10 mg/kg, 72 h, dose level High, time 3 day
[9] = 10 mg/kg, 72 h, tissue Kidney, dose level High, time 3 day
[10] = 10 mg/kg, […], dose level High, time 14 day
[11] = 10 mg/kg, […], dose level High, time 28 day
[12] = 10 mg/kg, […], tissue Kidney, dose level High, time 14 day
[13] = 10 mg/kg, […], tissue Kidney, dose level High, time 28 day

For `C#C[C@]1(O)CC[C@H]2[C@@H]3CCc4cc(O)ccc4[C@H]3CC[C@@]21C` [ETHINYL ESTRADIOL], the TBIL [1] was 0.1 mg/dL, the TC [1] was 50.6 mg/dL and the TG [1] was 82 mg/dL. The TP [1] was 6.8 g/dL, the gamma-GTP [1] was 3.2 IU/L and the TERMINAL_BW [2] was 201.7 g. It also gave an APTT [2] of 22.6 s, a Bas [2] of 0% and an Eos [2] of 1%. For the same compound, the Fbg [2] was 302.4 mg/dL, the Hb [2] was 13.7 g/dL and the Ht [2] was 40.3%. For the same compound, the Lym [2] was 76.4%, the MCH [2] was 20.9 pg and the MCHC [2] was 34.1%. It also gave an MCV [2] of 61.5 fL, a PT [2] of 13.5 s and a Plat [2] of 106.8 x10_4/uL. It also gave an RBC [2] of 656.8 x10_4/ul, a Ret [2] of 4.4% and a WBC [2] of 75.4 x10_2/uL. It also gave a KIDNEY_L [3] of 0.9 g, a KIDNEY_R [3] of 1 g and an LIVER [2] of 12.6 g. The ALP [2] was 2898.2 IU/L, the ALT [2] was 40.8 IU/L and the AST [2] was 66.2 IU/L. For the same compound, the BUN [2] was 9.8 mg/dL, the CRE [2] was 0.2 mg/dL and the Ca [2] was 10.5 mg/dL. The Cl [2] was 108.2 meq/L, the DBIL [2] was 0.038 mg/dL and the K [2] was 4 meq/L. The LDH [2] was 77.8 IU/L, the Na [2] was 143.6 meq/L and the PL [2] was 74.8 mg/dL. For the same compound, the RALB [2] was 2.6 g/dL, the TBIL [2] was 0.07 mg/dL and the TC [2] was 24.8 mg/dL. It also gave a TG [2] of 55.6 mg/dL, a TP [2] of 5.6 g/dL and a TERMINAL_BW [4] of 223.6 g. It also gave a TERMINAL_BW [5] of 227.7 g, an APTT [4] of 19.5 s and a Bas [4] of 0%. The Eos [4] was 1%, the Fbg [4] was 316.6 mg/dL and the Ht [4] was 37.1%. For the same compound, the Lym [4] was 76.2%, the MCH [4] was 20.2 pg and the MCHC [4] was 36%. The MCV [4] was 56.2 fL, the Mono [4] was 2.2% and the Neu [4] was 20%. For the same compound, the PT [4] was 13.6 s, the Plat [4] was 149.1 x10_4/uL and the RBC [4] was 659.8 x10_4/ul. For the same compound, the Ret [4] was 2.4%, the WBC [4] was 96.9 x10_2/uL and the APTT [5] was 24.1 s. It also gave a Bas [5] of 0%, a Fbg [5] of 301 mg/dL and a Ht [5] of 37.2%. For the same compound, the Lym [5] was 77.6%, the MCH [5] was 18.7 pg and the MCHC [5] was 36.1%. The MCV [5] was 51.7 fL, the Mono [5] was 2.2% and the PT [5] was 14 s. It also gave a Plat [5] of 110.2 x10_4/uL, an RBC [5] of 719 x10_4/ul and a Ret [5] of 2%. The WBC [5] was 69.4 x10_2/uL, the KIDNEY_L [6] was 1 g and the KIDNEY_R [6] was 1 g. The KIDNEY_TOTAL [6] was 2 g, the KIDNEY_L [7] was 1 g and the KIDNEY_R [7] was 1 g. The LIVER [4] was 15.2 g, the LIVER [5] was 13.8 g and the ALP [4] was 2422.2 IU/L. For the same compound, the ALT [4] was 39.2 IU/L, the AST [4] was 55.4 IU/L and the BUN [4] was 16.4 mg/dL. For the same compound, the CRE [4] was 0.3 mg/dL, the Cl [4] was 105.4 meq/L and the DBIL [4] was 0.088 mg/dL. For the same compound, the IP [4] was 6.2 mg/dL, the LDH [4] was 88.2 IU/L and the Na [4] was 143.8 meq/L. It also gave a PL [4] of 126.8 mg/dL, an RALB [4] of 3 g/dL and a TBIL [4] of 0.2 mg/dL. The TC [4] was 40.6 mg/dL, the TG [4] was 76.4 mg/dL and the TP [4] was 6.8 g/dL. It also gave a gamma-GTP [4] of 4.4 IU/L, an ALP [5] of 1503.2 IU/L and an ALT [5] of 40.6 IU/L. It also gave an AST [5] of 50.6 IU/L, a BUN [5] of 14.8 mg/dL and a CRE [5] of 0.2 mg/dL. It also gave a Ca [5] of 10.8 mg/dL, a Cl [5] of 105.2 meq/L and a DBIL [5] of 0.062 mg/dL. It also gave an IP [5] of 4.9 mg/dL, a K [5] of 3.9 meq/L and an LDH [5] of 51.4 IU/L. The Na [5] was 143.6 meq/L, the PL [5] was 134 mg/dL and the RALB [5] was 3.1 g/dL. For the same compound, the TBIL [5] was 0.1 mg/dL, the TC [5] was 46.8 mg/dL and the TG [5] was 59.2 mg/dL. For the same compound, the TP [5] was 6.9 g/dL, the gamma-GTP [5] was 9.8 IU/L and the TERMINAL_BW [8] was 202.8 g. For the same compound, the APTT [8] was 17.7 s, the Bas [8] was 0.2% and the Eos [8] was 1%. For the same compound, the Fbg [8] was 289.4 mg/dL, the Hb [8] was 13.2 g/dL and the Ht [8] was 38.8%. It also gave a Lym [8] of 81.8%, an MCHC [8] of 34.2% and an MCV [8] of 62.2 fL. It also gave a Mono [8] of 4.8%, a Neu [8] of 12% and a Plat [8] of 114.3 x10_4/uL. It also gave an RBC [8] of 623.8 x10_4/ul, a Ret [8] of 4.8% and a WBC [8] of 91.7 x10_2/uL. The KIDNEY_L [9] was 1 g, the KIDNEY_R [9] was 1 g and the LIVER [8] was 13.9 g. The ALP [8] was 2718.6 IU/L, the ALT [8] was 40.8 IU/L and the AST [8] was 63 IU/L. It also gave a BUN [8] of 9.4 mg/dL, a CRE [8] of 0.2 mg/dL and a Ca [8] of 10.3 mg/dL. The Cl [8] was 107.8 meq/L, the DBIL [8] was 0.044 mg/dL and the IP [8] was 7.8 mg/dL. The K [8] was 4.3 meq/L, the LDH [8] was 76.8 IU/L and the PL [8] was 65.8 mg/dL. It also gave an RALB [8] of 2.5 g/dL, a TBIL [8] of 0.082 mg/dL and a TC [8] of 23.2 mg/dL. For the same compound, the TG [8] was 30.2 mg/dL, the TP [8] was 5.3 g/dL and the gamma-GTP [8] was 1 IU/L. For the same compound, the TERMINAL_BW [10] was 202.6 g, the TERMINAL_BW [11] was 211.1 g and the APTT [10] was 20.6 s. For the same compound, the Bas [10] was 0%, the Eos [10] was 1% and the Fbg [10] was 254 mg/dL. It also gave a Hb [10] of 13.9 g/dL, a Ht [10] of 39% and a Lym [10] of 78.2%. For the same compound, the MCH [10] was 20.6 pg, the MCHC [10] was 35.7% and the MCV [10] was 57.8 fL. For the same compound, the Mono [10] was 2.6%, the PT [10] was 14 s and the Plat [10] was 122.3 x10_4/uL. For the same compound, the RBC [10] was 675.2 x10_4/ul, the Ret [10] was 0.9% and the WBC [10] was 71.4 x10_2/uL. For the same compound, the APTT [11] was 24.9 s, the Bas [11] was 0% and the Eos [11] was 0.6%. For the same compound, the Fbg [11] was 258.6 mg/dL, the Hb [11] was 12.4 g/dL and the Ht [11] was 33.9%. The Lym [11] was 78.6%, the MCH [11] was 19 pg and the MCHC [11] was 36.6%. It also gave an MCV [11] of 51.7 fL, a Mono [11] of 2% and a Neu [11] of 18.2%. For the same compound, the Plat [11] was 120.4 x10_4/uL, the RBC [11] was 656.4 x10_4/ul and the Ret [11] was 1.9%. The WBC [11] was 61.3 x10_2/uL, the KIDNEY_L [12] was 1 g and the KIDNEY_R [12] was 1 g. The KIDNEY_L [13] was 1 g, the KIDNEY_R [13] was 1 g and the LIVER [10] was 14.2 g. The LIVER [11] was 15.1 g, the ALP [10] was 2093.8 IU/L and the AST [10] was 58.4 IU/L. It also gave a BUN [10] of 15.4 mg/dL, a CRE [10] of 0.2 mg/dL and a Cl [10] of 104.6 meq/L. It also gave a DBIL [10] of 0.074 mg/dL, an IP [10] of 6.4 mg/dL and an LDH [10] of 125.2 IU/L. It also gave a Na [10] of 144.8 meq/L, a PL [10] of 89.8 mg/dL and an RALB [10] of 3.1 g/dL. It also gave a TBIL [10] of 0.1 mg/dL, a TC [10] of 28.4 mg/dL and a TG [10] of 30.4 mg/dL. It also gave a TP [10] of 7 g/dL, a gamma-GTP [10] of 12.2 IU/L and an ALP [11] of 1817.4 IU/L. The ALT [11] was 61.6 IU/L, the BUN [11] was 16.4 mg/dL and the CRE [11] was 0.2 mg/dL. The Cl [11] was 104.6 meq/L, the DBIL [11] was 0.1 mg/dL and the IP [11] was 5.8 mg/dL. For the same compound, the LDH [11] was 94.4 IU/L, the Na [11] was 145 meq/L and the PL [11] was 118.6 mg/dL. The RALB [11] was 3.3 g/dL, the TBIL [11] was 0.3 mg/dL and the TC [11] was 40 mg/dL. For the same compound, the TG [11] was 60.2 mg/dL, the TP [11] was 7.3 g/dL and the gamma-GTP [11] was 19 IU/L.
